Results published in patent publication US9078899B2, “Pyrazolyl-based carboxamides II” (Grünenthal GmbH, priority 2013, dated 2015).

Columns and labels:
[1] = molecular target: T1, CRAC channel (Homo sapiens, UniProt Q96D31); assay: HEK Calcium Influx Assay (FLIPR); format: cell-based; settings: 10 μM; endogenous SOC in HEK293 cells, thapsigargin store depletion, Ca2+ signal 9.5-10 min post-administration; read-out: % inhib.[@ 10 μM] FLIPR
T1 construct: host or cells: HEK293

[2] = system: Interleukin-2 (IL-2) production/release; assay: Jurkat IL-2 Production Assay; format: cell-based; settings: Homo sapiens; Jurkat T cells clone E6-1, 15 μg/ml PHA for 22 hours, IL-2 in supernatant
Description: Jurkat IL-2 Production Assay
The effect of compounds of the invention on Interleukin-2 (IL-2) production/release was tested in the Jurkat T cell line (ECACC) clone E6-1.
Jurkat T cells were cultured in DMEM/F12/Glutamax (Gibco) containing 10% FCS (Gibco), and maintained at 37° C., 5% CO2. Cell were split twice a week [5*10^6 (Mon-Thu) and 1*10^7 (Thu-Mon) cells/50 ml medium in T-175 ZK culture flasks, respectively].
Prior to experiment, cells were seeded on 96 well plates (Cellstar 96 Well; Cat No. 655180, Greiner bio-one) at a density of 5*10^5 cells/well in DMEM/F12/Glutamax (Gibco) containing 10% FCS (Gibco), and incubated for 60 min at 37° C., 5% CO2. Subsequently, compounds were added and cells were allowed to incubate for 30 min at 37° C., 5% CO2. Cells were then stimulated with 15 μg/ml Phytohemagglutinin (PHA; Sigma) for 22 hours at 37° C., 5% CO2.
Before sampling of the supernatants, cells were spun down (200*g/5 min/RT). The amount of IL-2 released into the supernatant was quantified with the human IL-2 AlphaLisa kit (Perkin Elmer) according to manufacturer's instructions. Luminescence proximity measurements were carried out in the Synergy H4 reader (BioTek) employing the fluorescence setting of the reader (ex: 680/30 nm; em: 620/40 nm).
Inhibition of IL-Production/Release in/from Jurkat T Cells was Quantified as Follows:
Zero percent inhibition (MAX) was defined as the [IL-2] determined in supernatants derived from cells to which PHA & DMSO-only had been added instead of compound. Hundred percent inhibition (MIN) was defined as the [IL-2] determined in supernatants derived from cells that had been pre-treated with 1 μM CyclosporineA (Sigma) before the addition of 15 μg/ml PHA.
For routine IC50 determinations of compounds, 8 concentrations of a serial dilution (1:3.16) were tested, starting off from 10 μM.

T1 sequence (Q96D31 whole entry): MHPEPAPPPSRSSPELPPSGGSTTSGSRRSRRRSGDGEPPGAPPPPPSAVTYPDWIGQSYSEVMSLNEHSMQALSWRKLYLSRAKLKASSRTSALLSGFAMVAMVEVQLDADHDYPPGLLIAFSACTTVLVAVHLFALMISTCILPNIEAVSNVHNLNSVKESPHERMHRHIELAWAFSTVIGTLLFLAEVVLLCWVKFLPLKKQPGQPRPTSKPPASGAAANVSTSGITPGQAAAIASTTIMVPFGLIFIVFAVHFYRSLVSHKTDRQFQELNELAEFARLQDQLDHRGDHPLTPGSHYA

| SMILES | inhibition at 10 µM [1] | IC50 [2] |
| --- | --- | --- |
| Cn1nc(C(=O)Nc2ccncc2F)cc1-c1cc(OC(F)(F)F)ccc1C1CC1 [Example 47, 5-[2-Cyclopropyl-5-(trifluoromethyloxy)-phenyl]-N-(3-fluoro-pyridin-4-yl)-1-methyl-1H-pyrazole-3-carboxylic acid amide] | > 70% | 1 to 5 µM |
| Cn1nc(C(=O)Nc2c(F)cncc2F)cc1-c1c(F)cccc1C(F)(F)F [Example 49, N-(3,5-Difluoro-pyridin-4-yl)-5-[2-fluoro-6-(trifluoromethyl)-phenyl]-1-methyl-1H-pyrazole-3-carboxylic acid amide] | > 70% | 1 to 5 µM |
| Cn1nc(C(=O)Nc2c(F)cccc2F)cc1-c1c(F)cccc1C(F)(F)F [Example 51, N-(2,6-Difluoro-phenyl)-5-[2-fluoro-6-(trifluoromethyl)-phenyl]-1-methyl-1H-pyrazole-3-carboxylic acid amide] | 50 to 70% | 1 to 5 µM |
| COc1cc(S(C)(=O)=O)ccc1-c1cc(C(=O)Nc2c(F)cccc2F)nn1C [Example 66, N-(2,6-Difluoro-phenyl)-5-(2-methoxy-4-methylsulfonyl-phenyl)-1-methyl-1H-pyrazole-3-carboxylic acid amide] | < 50% | 1 to 5 µM |
| CNc1c(C(=O)Nc2c(F)cncc2F)nn(C)c1-c1cc(OC)ccc1OC [Example 67, N-(3,5-Difluoro-pyridin-4-yl)-5-(2,5-dimethoxyphenyl)-1-methyl-4-methylamino-1H-pyrazole-3-carboxylic acid amide] | < 50% | 1 to 5 µM |
